Laboratory results: publication PMC6811774, “Potent, selective, and subunit‐dependent activation of TRPC5 channels by a xanthine derivative” (British Journal of Pharmacology, 2019)
Values joined by “and” are separate entries in the source; they are usually repeats but may differ in a detail not shown here. Identical values can stand only once.

Experiments:
[1] = system: TRPC5:C5; parameters: method as in Rubaiy, Ludlow, Henrot, et al., 2017; conditions: EA-mediated activation, 10 nM EA; ref Rubaiy, Ludlow, Henrot, et al., 2017; read-out: IC50, inhibition of TRPC5:C5; cited from earlier work
[2] = target: T1, TRPC5-SYFP2 (TRPC5:C5 channels) (Homo sapiens, UniProt Q9UL62); assay: [Ca2+]i measurement (Fura-2, FlexStation) in (Tet+) HEK T-REx cells expressing hTRPC5-SYFP2; format: cell-based
T1 construct: expressed in transfected cells
T1 sequence (Q9UL62 1-973): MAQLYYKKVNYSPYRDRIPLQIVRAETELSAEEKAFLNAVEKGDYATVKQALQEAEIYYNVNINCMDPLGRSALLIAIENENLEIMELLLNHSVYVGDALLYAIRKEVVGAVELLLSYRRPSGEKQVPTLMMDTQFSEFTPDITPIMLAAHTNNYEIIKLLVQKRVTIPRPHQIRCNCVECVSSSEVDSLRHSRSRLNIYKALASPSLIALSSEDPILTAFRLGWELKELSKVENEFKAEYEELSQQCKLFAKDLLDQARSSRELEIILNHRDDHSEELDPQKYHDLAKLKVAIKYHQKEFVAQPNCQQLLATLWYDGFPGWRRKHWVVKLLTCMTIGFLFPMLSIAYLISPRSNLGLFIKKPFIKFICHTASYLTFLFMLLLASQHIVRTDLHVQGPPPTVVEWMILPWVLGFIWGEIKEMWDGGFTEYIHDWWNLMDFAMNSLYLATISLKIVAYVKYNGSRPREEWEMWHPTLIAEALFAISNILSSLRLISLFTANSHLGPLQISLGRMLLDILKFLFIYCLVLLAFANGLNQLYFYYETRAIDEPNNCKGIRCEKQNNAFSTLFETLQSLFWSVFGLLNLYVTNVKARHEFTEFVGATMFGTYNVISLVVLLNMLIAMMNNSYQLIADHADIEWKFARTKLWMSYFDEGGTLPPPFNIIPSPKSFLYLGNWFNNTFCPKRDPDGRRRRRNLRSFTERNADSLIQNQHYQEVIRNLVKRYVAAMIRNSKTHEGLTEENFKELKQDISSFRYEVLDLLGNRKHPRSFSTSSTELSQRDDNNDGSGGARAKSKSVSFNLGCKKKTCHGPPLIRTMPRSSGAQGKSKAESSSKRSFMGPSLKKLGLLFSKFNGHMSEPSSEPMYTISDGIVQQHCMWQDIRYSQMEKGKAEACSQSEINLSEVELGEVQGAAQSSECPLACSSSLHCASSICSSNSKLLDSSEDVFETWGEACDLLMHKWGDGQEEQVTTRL
Source text: To facilitate cloning of TRPC5‐SYFP2 and TRPC4‐SYFP2, a pcDNA™4/TO expression vector (ThermoFisher Scientific, Waltham, MA, USA), into which a four amino acid linker (ASAS) flanked by AgeI and SacII restriction sites had been introduced between EcoRI and XhoI restriction sites, was used (Naylor et al., 2016). Human TRPC4β was inserted between BamHI and AgeI restriction sites as described previously (Ludlow et al., 2017). Human TRPC5 (forward primer: 5′ GCTTGGTACCGCCACCATG 3′ and reverse primer: 5′ […] 3′) was inserted upstream of the linker between KpnI and AgeI restriction sites using hTRPC5/pcDNA™4/TO (Zeng et al., 2004) as a PCR template. Both constructs contained an N‐terminal Kozak sequence. SYFP2 was inserted downstream of the linker between SacII and XbaI restriction sites using pSYFP2‐C1 as a PCR template (forward primer, 5′ […] 3′; reverse primer, 5′ […] 3′). pSYFP2‐C1 was a gift from Dorus Gadella (Addgene plasmid #22878; http://n2t.net/addgene:22878; RRID:Addgene_22878; Kremers, Goedhart, van Munster, & Gadella, 2006). Plasmids were sequenced to verify identity.
HEK T‐REx™ cell line was transfected with TRPC5‐SYFP2 or TRPC4‐SYFP2 using FuGENE® HD transfection reagent. After 48 hr, cells were put under antibiotic selection using 400 μg·ml^−1 zeocin and 10 μg·ml^−1 blasticidin S (Invivogen, San Diego, California, USA). Medium changes were carried out regularly to remove dead cells. HEK T‐REx cells expressing tetracycline‐inducible human TRPC5, TRPC4–C1, and TRPC5–C1 were created as described previously (Akbulut et al., 2015; Ludlow et al., 2017; Rubaiy, Ludlow, Henrot, et al., 2017). TRPC5–C1 and TRPC4–C1 concatemers allow expression of functional channels with defined 2:2 stoichiometry that display ion permeability and current–voltage relationships distinct from those of homomeric TRPC4:C4 or TRPC5:C5 channels and consistent with those obtained upon co‐expression of TRPC1 with TRPC4 or TRPC5 (Ludlow et al., 2017; Rubaiy, Ludlow, Bon, & Beech, 2017; Rubaiy, Ludlow, Henrot, et al., 2017). Cells were cultured in DMEM‐F12 GlutaMAX (Invitrogen, Paisley, UK) containing 10% FBS (Sigma‐Aldrich, Gillingham, UK), with the addition of blasticidin (10 μg·ml^−1) and zeocin (400 μg·ml^−1) to maintain the stable incorporation of the tetracycline repressor and the channel of interest, respectively. Expression of proteins was induced by the addition of tetracycline (1 μg·ml^−1, 24 hr). Cells were maintained in a humidified incubator with 5% CO2 at 37°C. HEK 293 cells stably expressing tetracycline‐regulated human http://www.guidetopharmacology.org/GRAC/ObjectDisplayForward?objectId=494 were prepared similarly and have also been described previously (McHugh, Flemming, Xu, Perraud, & Beech, 2003). For experiments using transient co‐expression of TRPC1 and TRPC5, HEK cells at 40–60% confluency were transfected with pIRES2‐AcGFP1 and pIRES2‐DsRed‐Express2 plasmids containing human TRPC1 and TRPC5, respectively, using Lipofectamine 3000 (ThermoFisher Scientific, Yokohama, Japan). All experiments using transient expression were performed within 48 hr after transfection. A498 cells were cultured in Minimum Essential Medium containing Earle's salts (ThermoFisher Scientific, Loughborough, UK), supplemented with 10% FBS and penicillin–streptomycin (100 units per ml^−1, 100 μg·ml^−1; ThermoFisher Scientific, Loughborough, UK). CHO cells stably expressing http://www.guidetopharmacology.org/GRAC/ObjectDisplayForward?objectId=510 were maintained in Ham's Nutrient Mixture F12 (ThermoFisher Scientific, Loughborough, UK) supplemented with 10% FBS, penicillin–streptomycin, and 1 mg·ml^−1 G418 (InvivoGen, San Diego, California, USA). For experiments using hTRPC3 and hTRPC6, WT HEK 293 cells were transfected with hTRPC3 (Naylor et al., 2016) or hTRPC6 (cloned into pcDNA3) using jetPRIME® transfection reagent (VWR, Lutterworth, UK). Cells were assayed 48 hr after transfection. […]

For `Cn1c(=O)n(CCCO)c(=O)c2c1nc(Oc1cccc(OC(F)(F)F)c1)n2Cc1ccc(Cl)cc1` [Pico145, reference compound], the IC50 [1] is given as 1 nM and ~1 nM, the IC50 [2] is given as 2 nM and the “Concentration giving maximal inhibition of AM237 response” value ([2]; 100 nM AM237) is given as 10 nM. For the same molecule, the “Hill slope, inhibition of AM237 response” value ([2]; 100 nM AM237) was “–1.3” and the “Mode of inhibition of AM237-mediated TRPC5:C5 activation” value ([2]; surmountable, parallel rightward shifts, confirmed by patch-clamp) was “competitive antagonist”.
